For two compounds, Activity results are on record in ChEMBL document CHEMBL2074316, “Multidrug resistance protein-mediated transport of chlorambucil and melphalan conjugated to glutathione” (Br J Cancer, 1998).

For the data set, the target named is Multidrug resistance-associated protein 1 (Homo sapiens, UniProt P33527). Nature of the data set: TP_TRANSPORTER: uptake in membrane vesicle from MRP1-expressing HeLa cells. It is filed as functional, cell membranes.
Multidrug resistance-associated protein 1, sequence (P33527 whole entry): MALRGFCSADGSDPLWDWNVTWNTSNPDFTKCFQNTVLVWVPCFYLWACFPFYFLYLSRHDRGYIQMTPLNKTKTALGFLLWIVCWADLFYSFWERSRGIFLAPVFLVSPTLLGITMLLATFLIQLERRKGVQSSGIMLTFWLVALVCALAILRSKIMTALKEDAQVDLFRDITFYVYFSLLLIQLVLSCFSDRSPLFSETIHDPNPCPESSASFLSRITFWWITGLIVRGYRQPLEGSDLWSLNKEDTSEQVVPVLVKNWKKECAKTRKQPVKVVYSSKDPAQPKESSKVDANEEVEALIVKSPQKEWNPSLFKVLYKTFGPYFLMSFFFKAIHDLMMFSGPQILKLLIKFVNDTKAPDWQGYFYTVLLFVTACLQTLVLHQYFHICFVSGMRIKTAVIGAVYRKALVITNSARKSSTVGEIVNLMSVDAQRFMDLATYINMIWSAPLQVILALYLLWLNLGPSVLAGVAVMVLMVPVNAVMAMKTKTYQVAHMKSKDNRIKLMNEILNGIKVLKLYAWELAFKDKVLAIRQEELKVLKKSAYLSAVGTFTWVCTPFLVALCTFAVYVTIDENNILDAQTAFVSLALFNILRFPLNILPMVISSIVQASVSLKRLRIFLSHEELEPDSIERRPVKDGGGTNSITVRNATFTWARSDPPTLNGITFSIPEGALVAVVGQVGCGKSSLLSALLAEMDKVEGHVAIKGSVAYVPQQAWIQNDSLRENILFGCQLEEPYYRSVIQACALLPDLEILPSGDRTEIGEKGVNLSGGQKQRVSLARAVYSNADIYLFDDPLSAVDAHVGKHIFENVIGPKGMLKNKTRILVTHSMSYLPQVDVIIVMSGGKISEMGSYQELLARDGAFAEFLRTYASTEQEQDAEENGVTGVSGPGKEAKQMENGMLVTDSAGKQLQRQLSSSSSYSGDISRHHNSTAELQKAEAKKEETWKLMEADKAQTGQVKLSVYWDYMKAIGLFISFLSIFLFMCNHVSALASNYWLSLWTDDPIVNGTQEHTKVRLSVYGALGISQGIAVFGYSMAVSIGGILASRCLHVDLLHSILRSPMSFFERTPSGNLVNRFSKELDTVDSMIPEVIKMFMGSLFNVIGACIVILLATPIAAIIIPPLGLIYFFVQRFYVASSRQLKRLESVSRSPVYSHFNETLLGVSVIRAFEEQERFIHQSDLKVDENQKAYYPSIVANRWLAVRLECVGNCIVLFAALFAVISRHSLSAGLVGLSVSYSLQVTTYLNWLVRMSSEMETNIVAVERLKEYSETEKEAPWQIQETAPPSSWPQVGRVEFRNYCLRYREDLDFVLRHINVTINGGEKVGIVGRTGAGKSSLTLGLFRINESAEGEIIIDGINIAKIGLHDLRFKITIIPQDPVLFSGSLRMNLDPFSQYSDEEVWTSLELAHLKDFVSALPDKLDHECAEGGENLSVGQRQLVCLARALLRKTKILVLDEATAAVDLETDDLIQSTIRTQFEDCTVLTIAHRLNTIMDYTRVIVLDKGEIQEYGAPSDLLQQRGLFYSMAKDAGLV

Turning to `C=C(NCC(=O)O)[C@H](CSCCN(CCSC[C@H](NC(=O)CC[C@H](N)C(=O)O)C(=O)NCC(=O)O)c1ccc(CCCC(=O)O)cc1)NC(=O)CC[C@H](N)C(=O)O` [BISGLUTATHIONYL CHLORAMBUCIL], the Activity result is “substrate [+]”.

As to `NC(CCC(=O)NC(CSCCN(CCO)c1ccc(CCCC(=O)O)cc1)C(=O)NCC(=O)O)C(=O)O` (configuration not stated) [MONOHYDROXY MONOGLUTATHIONYL CHLORAMBUCIL], the Activity entry was “substrate [+]”.
